According to ChEMBL document CHEMBL3351535, “Identification of novel phenyl butenonyl C-glycosides with ureidyl and sulfonamidyl moieties as antimalarial agents” (ACS Med Chem Lett, 2014):

Legend:
Plasmodium falciparum [1] = assay: Antimalarial activity against Plasmodium falciparum K1 after 72 hrs by SYBR Green fluorescence assay; format: functional, organism-based; conditions: K1, 72 h
[2] = Cytotoxicity against african green monkey Vero cells after 2 days by resazurin assay; format: cell-based; conditions: chlorocebus sabaeus
Plasmodium falciparum [3] = assay: Antimalarial activity against Plasmodium falciparum 3D7 after 72 hrs by SYBR Green fluorescence assay; format: functional, organism-based; conditions: 3D7, 72 h
Heme = assay: Inhibition of heme polymerization in Plasmodium yoelii nigeriensis infected erythrocytes (unknown origin) extract at 100 uM after 4 hrs by spectrophotometry
[4] = Terminal elimination half-life in Sprague-Dawley rat at 5 mg/kg, iv; format: ADME, organism-based; design: dose 5 mg/kg, route intravenous; conditions: in vivo, read-out: beta t1/2 (converted)
[5] = Systemic clearance in Sprague-Dawley rat at 5 mg/kg, iv; format: ADME, organism-based; design: dose 5 mg/kg, route intravenous; conditions: in vivo
[6] = Volume of distribution in Sprague-Dawley rat at 5 mg/kg, iv; format: ADME, organism-based; design: dose 5 mg/kg, route intravenous; conditions: in vivo

| IC50 (Plasmodium falciparum [1]) | IC50 (Plasmodium falciparum [3]) | inhibition (Heme) | half-life [4] | clearance [5] | Vd [6] | SMILES | CC50 at 48 h [2] |
| --- | --- | --- | --- | --- | --- | --- | --- |
| 4.48 µM | 1.91 µM | – | – | – | – | CC(=O)OC[C@H]1O[C@@H](CC(=O)/C=C/c2cccc(NC(=S)Nc3ccccc3)c2)[C@H](OC(C)=O)[C@@H](OC(C)=O)[C@@H]1OC(C)=O | 337 µM |
| 20 µM | 20 µM | – | – | – | – | O=C(/C=C/c1cccc(NC(=O)Nc2ccccc2)c1)C[C@@H]1O[C@H](CO)[C@@H](O)[C@H](O)[C@@H]1O | – |
| 3.87 µM | 2.2 µM | – | – | – | – | Cc1ccc(S(=O)(=O)Nc2cccc(/C=C/C(=O)C[C@@H]3O[C@H](CO)[C@@H](O)[C@H](O)[C@H]3O)c2)cc1 | 381 µM |
| 5.57 µM | 4.2 µM | – | – | – | – | CC(=O)O[C@@H]1[C@@H](OC(C)=O)[C@H](OC(C)=O)CO[C@H]1CC(=O)/C=C/c1cccc(NC(=S)Nc2ccccc2)c1 | 58.7 µM |
| 8.69 µM | 6.89 µM | – | – | – | – | O=C(/C=C/c1cccc(NC(=S)Nc2ccccc2)c1)C[C@@H]1OC[C@@H](O)[C@H](O)[C@H]1O | 289 µM |
| 5.28 µM | 5.91 µM | – | – | – | – | O=C(/C=C/c1ccc(NC(=O)Nc2ccc3ccccc3c2)cc1)C[C@@H]1O[C@H](CO)[C@@H](O)[C@H](O)[C@H]1O | 1020 µM |
| 7.81 µM | 6.65 µM | – | – | – | – | CC(=O)OC[C@H]1O[C@@H](CC(=O)/C=C/c2cccc(NC(=O)Nc3ccccc3)c2)[C@@H](OC(C)=O)[C@@H](OC(C)=O)[C@@H]1OC(C)=O | 102 µM |
| 2.87 µM | 3.73 µM | – | – | – | – | CC(=O)OC[C@H]1O[C@@H](CC(=O)/C=C/c2cccc(NC(=S)Nc3ccccc3)c2)[C@@H](OC(C)=O)[C@@H](OC(C)=O)[C@@H]1OC(C)=O | 65.1 µM |
| 5.19 µM | 3.96 µM | – | – | – | – | CC(=O)OC[C@H]1O[C@@H](CC(=O)/C=C/c2cccc(NS(=O)(=O)c3ccc(C)cc3)c2)[C@@H](OC(C)=O)[C@@H](OC(C)=O)[C@@H]1OC(C)=O | 123 µM |
| 2.47 µM | 3.35 µM | – | – | – | – | COc1cc([N+](=O)[O-])ccc1NC(=S)Nc1cccc(/C=C/C(=O)C[C@@H]2O[C@H](CO)[C@@H](O)[C@H](O)[C@H]2O)c1 | 203 µM |
| 2.17 µM | 1.14 µM | – | – | – | – | CC(=O)OC[C@H]1O[C@@H](CC(=O)/C=C/c2cccc(NS(=O)(=O)c3ccc(C)cc3)c2)[C@H](OC(C)=O)[C@@H](OC(C)=O)[C@@H]1OC(C)=O | 584 µM |
| 2.3 µM | 1.83 µM | – | – | – | – | CC(=O)OC[C@H]1O[C@@H](CC(=O)/C=C/c2ccc(NC(=S)Nc3ccccc3)cc2)[C@H](OC(C)=O)[C@@H](OC(C)=O)[C@@H]1OC(C)=O | 663 µM |
| > 20 µM | > 20 µM | – | – | – | – | Cc1ccc(S(=O)(=O)Nc2ccccc2)cc1 | 221 µM |
| > 20 µM | > 20 µM | – | – | – | – | CCOC(=O)/C=C/c1cccc(NC(=S)Nc2ccccc2)c1 | 279 µM |
| > 20 µM | 13.8 µM | – | – | – | – | O=C(Nc1ccccc1)Nc1ccccc1 | 352 µM |
| 6.35 µM | 2.93 µM | – | – | – | – | Cc1ccc(S(=O)(=O)Nc2cccc(/C=C/C(=O)C[C@@H]3OC[C@@H](O)[C@H](O)[C@H]3O)c2)cc1 | 94.7 µM |
| 5.36 µM | 2.18 µM | – | – | – | – | CC(=O)OC[C@H]1O[C@@H](CC(=O)/C=C/c2ccc(NC(=O)Nc3ccc4ccccc4c3)cc2)[C@H](OC(C)=O)[C@@H](OC(C)=O)[C@@H]1OC(C)=O | 482 µM |
| – | – | – | – | – | – | CCN(CC)CCCC(C)Nc1ccnc2cc(Cl)ccc12 (centres undefined) [CHLOROQUINE] | 685 µM |

| IC50 (Plasmodium falciparum [1]) | IC50 (Plasmodium falciparum [3]) | inhibition (Heme) | half-life [4] | clearance [5] | Vd [6] | SMILES | CC50 at 48 h [2] |
| --- | --- | --- | --- | --- | --- | --- | --- |
| 13.4 µM | 8.8 µM | – | – | – | – | CCOC(=O)/C=C/c1cccc(NC(=O)Nc2ccccc2)c1 | 293 µM |
| 4.23 µM | 0.94 µM | 92.7% | – | – | – | COc1ccc(NC(=O)Nc2cccc(/C=C/C(=O)C[C@@H]3O[C@H](COC(C)=O)[C@@H](OC(C)=O)[C@H](OC(C)=O)[C@H]3OC(C)=O)c2)c([N+](=O)[O-])c1 | 730 µM |
| 16.1 µM | 16.1 µM | – | – | – | – | CCOC(=O)/C=C/c1cccc(NS(=O)(=O)c2ccc(C)cc2)c1 | 77.1 µM |
| 0.42 µM | 0.55 µM | 72.1% | – | – | – | COc1cc([N+](=O)[O-])ccc1NC(=S)Nc1cccc(/C=C/C(=O)C[C@@H]2O[C@H](COC(C)=O)[C@@H](OC(C)=O)[C@H](OC(C)=O)[C@H]2OC(C)=O)c1 | 559 µM |
| 5.43 µM | 3.44 µM | – | – | – | – | O=C(/C=C/c1cccc(NC(=O)Nc2ccccc2)c1)C[C@@H]1OC[C@@H](O)[C@H](O)[C@H]1O | 309 µM |
| 3.39 µM | 3.77 µM | – | – | – | – | O=C(/C=C/c1cccc(NC(=O)Nc2ccccc2)c1)C[C@@H]1O[C@H](CO)[C@@H](O)[C@H](O)[C@H]1O | 373 µM |
| 18 µM | > 20 µM | – | – | – | – | COc1ccc(NC(=O)Nc2ccccc2)c([N+](=O)[O-])c1 | 356 µM |
| 13.8 µM | 11.8 µM | – | – | – | – | O=C(/C=C/c1ccc(NC(=S)Nc2ccccc2)cc1)C[C@@H]1O[C@H](CO)[C@@H](O)[C@H](O)[C@H]1O | 274 µM |
| 2.4 µM | 2.29 µM | 72.5% | – | – | – | CC(=O)OC[C@H]1O[C@@H](CC(=O)/C=C/c2cccc(NC(=O)Nc3ccccc3)c2)[C@H](OC(C)=O)[C@@H](OC(C)=O)[C@@H]1OC(C)=O | 180 µM |
| 1.58 µM | 0.56 µM | – | 7.1 h | 17 mL/min/kg | 2.8 L/kg | COc1ccc(NC(=O)Nc2cccc(/C=C/C(=O)C[C@@H]3O[C@H](CO)[C@@H](O)[C@H](O)[C@H]3O)c2)c([N+](=O)[O-])c1 | 709 µM |
| 7.2 µM | 9.43 µM | – | – | – | – | O=C(/C=C/c1cccc(NC(=S)Nc2ccccc2)c1)C[C@@H]1O[C@H](CO)[C@@H](O)[C@H](O)[C@H]1O | 371 µM |
| 3 µM | 1.39 µM | – | – | – | – | CC(=O)O[C@@H]1[C@@H](OC(C)=O)[C@H](OC(C)=O)CO[C@H]1CC(=O)/C=C/c1cccc(NS(=O)(=O)c2ccc(C)cc2)c1 | 268 µM |
| 7.66 µM | 7.51 µM | – | – | – | – | O=C(/C=C/c1ccc(NC(=O)Nc2ccccc2)cc1)C[C@@H]1O[C@H](CO)[C@@H](O)[C@H](O)[C@H]1O | 1130 µM |
| 17.8 µM | 13.1 µM | – | – | – | – | O=C(/C=C/c1cccc(NC(=S)Nc2ccccc2)c1)C[C@@H]1O[C@H](CO)[C@@H](O)[C@H](O)[C@@H]1O | 336 µM |
| 5.11 µM | 3.89 µM | – | – | – | – | Cc1ccc(S(=O)(=O)Nc2cccc(/C=C/C(=O)C[C@@H]3O[C@H](CO)[C@@H](O)[C@H](O)[C@@H]3O)c2)cc1 | 417 µM |
| 5.55 µM | 5.27 µM | – | – | – | – | CC(=O)OC[C@H]1O[C@@H](CC(=O)/C=C/c2ccc(NC(=O)Nc3ccccc3)cc2)[C@H](OC(C)=O)[C@@H](OC(C)=O)[C@@H]1OC(C)=O | 820 µM |
| 4.92 µM | 3.17 µM | 76.9% | – | – | – | CC(=O)O[C@@H]1[C@@H](OC(C)=O)[C@H](OC(C)=O)CO[C@H]1CC(=O)/C=C/c1cccc(NC(=O)Nc2ccccc2)c1 | 102 µM |
